Experimental data as given in patent publication US20260028451A1, “Amido-Amine Hardener” (priority 2022, published 2026).

Assays:
oestrogen receptor = molecular target: T1, oestrogen receptor (Homo sapiens, UniProt P03372); experiment: Oestrogenic activity testing using MELN cells (ER-transactivation assay); type: cell-based; details: hER-stably transfected MCF-7
T1 construct: MELN cells [hER-stably transfected model of the human breast cancer MCF-7 cells]; endogenous in cells; host or cells: MELN cells (MCF-7 human breast cancer cells)
T1 sequence (P03372 1-595): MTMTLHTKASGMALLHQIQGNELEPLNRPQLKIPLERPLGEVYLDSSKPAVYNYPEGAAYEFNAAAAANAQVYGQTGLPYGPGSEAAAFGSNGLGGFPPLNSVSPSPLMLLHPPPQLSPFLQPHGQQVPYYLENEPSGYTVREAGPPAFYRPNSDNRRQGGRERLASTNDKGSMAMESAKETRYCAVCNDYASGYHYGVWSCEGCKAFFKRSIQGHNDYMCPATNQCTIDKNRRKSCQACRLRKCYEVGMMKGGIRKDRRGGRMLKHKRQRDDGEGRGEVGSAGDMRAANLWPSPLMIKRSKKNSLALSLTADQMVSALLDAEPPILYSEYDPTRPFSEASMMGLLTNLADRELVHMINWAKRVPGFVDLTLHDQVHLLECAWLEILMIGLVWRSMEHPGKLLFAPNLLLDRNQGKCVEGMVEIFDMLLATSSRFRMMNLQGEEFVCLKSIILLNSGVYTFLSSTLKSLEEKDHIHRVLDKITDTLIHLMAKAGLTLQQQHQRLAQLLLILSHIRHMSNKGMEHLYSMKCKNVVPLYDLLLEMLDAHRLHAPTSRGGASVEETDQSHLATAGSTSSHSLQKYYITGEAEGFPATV
Description: Various phenolic compounds, such as phenolic Mannich bases may also pose a risk of acting as oestrogen agonists, this is thought to be due to structural similarity between the phenolic group and the phenolic group present in oestrogen itself. […] The tests were performed using MELN cells [hER-stably transfected model of the human breast cancer MCF-7 cells].

MELN cells = type: cell-based, human
Description: The use of bisphenol A in epoxy systems is often avoided for this reason. Various phenolic compounds, such as phenolic Mannich bases may also pose a risk of acting as oestrogen agonists, this is thought to be due to structural similarity between the phenolic group and the phenolic group present in oestrogen itself. […]. The tests were performed using MELN cells [hER-stably transfected model of the human breast cancer MCF-7 cells]. The use of MELN cells for screening cytotoxicity and oestrogenic activity is a standard test known in the art, for example, as described in Berckmans P, Leppens H, Vangenechten C, Witters H., “Screening of endocrine disrupting chemicals with MELN cells, an ER-transactivation assay combined with cytotoxicity assessment”, Toxicol In Vitro. 2007, 21(7), 1262-7.

[1] = Viscosity at 25° C., ASTM D2556-14(2018); type: physicochemical; details: undiluted curative composition / product as prepared
Description: This material was then diluted with benzyl alcohol in order to reduce the viscosity. The relationship between the viscosity (as measured by ASTM D2556-14(2018)) and the vol % dilution with benzyl alcohol is shown in FIG. 1. […] The properties of a 63:37 vol/vol mixture of salicylamide Mannich base C:benzyl alcohol are shown below in Table 7.

Compound: CC(C)(c1ccc(O)cc1)c1ccc(O)cc1 [Bisphenol A, bisphenol A]
- Agonist response (oestrogen receptor): Positive
- Cytotoxicity (MELN cells): No

Compound: NCCNCCNCCNCc1cc(CNCCNCCNCCN)c(O)c(C(=O)NCCNCCNCCN)c1 [Salicylamide Mannich Base A]
- Agonist response (oestrogen receptor): Negative
- Viscosity at 25° C. [1]: 1130 m · Pas
- Cytotoxicity (MELN cells): No

Compound: C[C@]12CC[C@@H]3c4ccc(O)cc4CC[C@H]3[C@@H]1CC[C@@H]2O [17β- oestradiol, 17β-oestradiol]
- Cytotoxicity (MELN cells): No
